From patent US7407953B2, “Wound healing” (Photopharmica Limited, priority 2007, dated 2008)
Where “and” joins values, the source holds several entries; their conditions need not be identical. Equal values may be shown once.

How the values were obtained:
[1] = system: full-thickness excisional wounds in flank skin of Wistar rats; test: Closure of full thickness excisional wounds in Wistar rat, PDT; type: in vivo
Experimental: 3,7-bis(N,N-dibutylamino)phenothiazin-5-ium bromide was solubilised in ethanol to give a concentration of 10 mg/ml. This was diluted in Unguentum M: 80% water, to give creams with final concentrations of 100 μM or 500 μM of 3,7-bis(N,N-dibutylamino)phenothiazin-5-ium bromide.
The above creams were used on the closure of full thickness excisional wounds in Wistar rats with exposure to light. The effect of topical application of 50 mg of 3,7-bis(N,N-dibutylamino)phenothiazin-5-ium bromide (at concentrations of 100 μM and 500 μM) followed by photo-activation with 688 nm laser light was investigated and compared to that of application of the drug delivery vehicle (Unguentum M) followed by 688 nm photo-activation. The light dose used was 50 J/cm^2. Wound repair was measured in terms of the closure of standardised full-thickness excisional wounds created in the flank skin of adult Wistar rats.

[2] = system: full thickness wound in flank skin of Wistar rat; test: Wound healing in the Wistar rat, no light; type: in vivo; settings: for % Wound area remaining, no light, 2 days post treatment / % Wound area remaining, no light, 4 days post treatment / % Wound area remaining, no light, 6 days post treatment: 100 mg topical, not illuminated
Experimental: On day 0, animals were anaesthetised and a single standardised full thickness wound (7.5 mm×7.5 mm) was created in the flank skin of each experimental animal. Wounds were dressed with a 1.5×1.5 cm pad of encapsulated gauze moistened with a fixed volume of sterile saline.
Wounds were allowed to heal without intervention for a period of 4 days, other than the replacement of saline moistened gauze and film dressings, as required.
On day 4 standard secondary dressings were removed. 100 mg of 100 μM or 500 μM 3,7-bis(N,N-dibutylamino)phenothiazin-5-ium bromide cream was applied to the wound. The wounds were not illuminated. The area of the wounds were measured prior to treatment (day 4) and on day 6, 8 and 10.

[3] = system: full thickness wound in flank skin of diabetic (db/db) mice; test: Wound healing in spontaneous diabetic (db/db) mice, PDT; type: in vivo, mice (c57BLKs/Bom db/db)
Source text: When wounds are created on (db/db) diabetic mice the wounds heal more slowly compared to the non diabetic mice. This delayed healing may be caused by a lack of vasculature to feed the wound. The delayed healing model is representative of a chronic wound, and wound healing effects of drugs can be more closely monitored and more easily measured.
18 animals were included in this study. 6 control non diabetic mice (db/+), 6 control diabetic (db/db) mice and 6 (db/db) PDT treated diabetic mice.
The 3,7-bis(N,N-dibutylamino)phenothiazin-5-ium bromide was formulated in ethanol and Unguentum M as described in Example 2 below at a concentration of 0.266 mg/mL.
On day 0, the animals were anaesthetised and a single standardised full thickness wound (7.5 mm×7.5 mm) was created in the flank skin of each experimental animal. Wounds were then dressed with a 1.5×1.5 cm pad of encapsulated gauze moistened with a fixed volume of sterile saline solution. […]
Image Pro image analysis software (version 4.1.0.0, obtained from Media Cybernetics, USA) was used to calculate wound closure from wound images in each of the experimental groups over time. For each wound at each time point—open wound area was measured and expressed in terms of % wound area relative to day 4 (treatment day).

chronic leg ulcers = test: Phase IIa randomised, placebo controlled trial, PDT in chronic leg ulcers; type: in vivo, patients; settings: 500 μM cream, 50 J/cm^2
Experimental: 16 patients with chronic leg ulcers were recruited for the study. All patients had ulcers that had been present for at least 3 months prior to treatment. After randomisation, 8 patients were treated with 3,7-bis(N,N-dibutylamino)phenothiazin-5-ium bromide PDT and 8 patients were treated with placebo. Ulcer area was measured before treatment and at 1 week, 1 month, 2 months and 3 months post treatment using a Visitrak system. Photographs were taken of the ulcers before treatment and at 24 h, 1 week, 1, 2 and 3 months post treatment.
Placebo cream was Unguentum Merck: water (1:2). 3,7-bis(N,N-dibutylamino)phenothiazin-5-ium bromide cream was 500 μM 3,7-bis(N,N-dibutylamino)phenothiazin-5-ium bromide in Unguentum Merck:water (1:2). For the treatment a 1 mm depth of cream was spread over the surface of the ulcer. The ulcer was then left, occluded under film, shielded from light for 15 minutes. At the end of the 15 minute incubation, excess cream was removed and the ulcer was illuminated using a CureLight 01 (obtainable from Photocure) at a light dose of 50 J/cm^2.

[4] = system: chronic non healing leg ulcers or diabetic foot ulcers; test: Clinical study, PDT on wound healing of chronic ulcers; type: in vivo, patients; settings: 500 μM cream topical
Source text: After ethical review board approval and written informed participant consents were obtained, patients were recruited, provided they satisfied the ethically approved inclusion criteria. MHRA approval had been obtained.
Patients were recruited who had chronic non healing leg ulcers or diabetic foot ulcers. These patients had shown little or no wound healing for a number of weeks prior to treatment.
For the treatment 3,7-bis(N,N-dibutylamino)phenothiazin-5-ium bromide, formulated in ethanol and Unguentum M as described in Example 2 above at 500 μM, was applied topically to the ulcer surface and surrounding ulcer margin (5 mm) giving a cream depth of up to 5 mm. The ulcer was then left, not occluded, but in minimal lighting, for 15 minutes. After this pre-incubation time, the cream was rubbed into the ulcer so underlying skin/tissue could be seen through the cream. If this was not possible excess cream was removed. The ulcer was then illuminated using a broad band CureLight lamp (obtainable from PhotoCure) at a fluence rate of 20-50 mW/cm^2 giving a total light dose of 50 J/cm^2.
The ulcer area was measured pre treatment and after 1 week and one month.

intimal hyperplasia = settings: local photodynamic action; Heckenkamp et al 2000; cited from earlier work
[5] = system: rat skin flap reconstruction; settings: Kubler et al 1996; cited from earlier work
wounds = settings: literature conclusions (Parekh 1999, Lambrects 2005, Hamblin 2003, Belmont 1999); cited from earlier work
[6] = individual patients 1-5, 50 J/cm^2 broad band light

CCCCN(CCCC)c1ccc2nc3ccc(N(CCCC)CCCC)cc3[s+]c2c1.[Br-] [3,7-bis(N,N-dibutylamino)phenothiazin-5-ium bromide]
wound closure, light treatment vs compound alone ([1]; 100 μM cream, 50 mg topical, 688 nm laser light 50 J/cm^2): closed more rapidly
wound closure, higher dose vs lower dose ([1]; 500 μM cream vs 100 μM cream): closed more rapidly
adverse tissue responses, gross examination of wound and wound margin tissue ([1]; any treatment regime of the study): no adverse tissue responses were noted
% Wound area remaining, no light, 2 days post treatment ([2]; 100 μM cream): 62%
% Wound area remaining, no light, 4 days post treatment ([2]; 100 μM cream): 33%
% Wound area remaining, no light, 6 days post treatment ([2]; 100 μM cream): 25%
% Wound area remaining, no light, 2 days post treatment ([2]; 500 μM cream): 62%
% Wound area remaining, no light, 4 days post treatment ([2]; 500 μM cream): 30%
% Wound area remaining, no light, 6 days post treatment ([2]; 500 μM cream): 19%
wound healing, 500 μM vs 100 μM ([2]; no light): heal faster at a 500 μM concentration than at 100 μM
% wound area (open wound area relative to day 4, treatment day) ([3]; diabetic db/db mice, 500 μM in Unguentum M topical + 25 J/cm^2 688 nm light, 3 days post treatment, 6 animals): 46%
rate of wound healing ([3]; in combination with light, treated diabetic mice vs control diabetic mice): substantial increase in the rate of wound healing
healing as measured by the size of the wound, compared to placebo (chronic leg ulcers): Better healing
patients showing complete wound healing at 2 months (chronic leg ulcers; 2 out of 8 patients, placebo: none): 25%
patients showing complete wound healing at 3 months (chronic leg ulcers; 4 out of 8 patients, placebo: 1 out of 8 (12.5%)): 50%
area of the treated ulcers following the photodynamic treatment ([4]; 50 J/cm^2): reduction in the area of the treated ulcers
Percentage reduction in ulcer area at 1 month compared to pre treatment [4, 6]: 13% and 8% and 10% and 50% and 34%
Percentage reduction in ulcer area at 1 week compared to pre treatment [4, 6]: 8% and 14% and 0% and 23%

CN(C)c1ccc2nc3ccc(=[N+](C)C)cc-3sc2c1 [methylene blue]
effect on intimal hyperplasia (intimal hyperplasia): retarding effect on intimal hyperplasia

Photofrin
effect on wound healing [5]: delayed wound healing
effect of PDT on wound healing (wounds): delay wound healing

Poly-lysine-chlorin e6
effect of PDT on wound healing (wounds): did not accelerate wound healing
